For 21 compounds, IC50 and EC50 results are on record in ChEMBL document CHEMBL3217655, “The development of quinoloneesters as novel antimalarial agents targeting the Plasmodium falciparum bc1protein complex” (Medchemcomm, 2012).

A value given as a limit tells only on which side of the number the result lay.

The subject of one assay is Plasmodium falciparum. In words: Antimalarial activity against wild type Plasmodium falciparum 3D7 assessed as growth inhibition. It is filed as functional, organism-based.
Details: not given
As for `CCOC(=O)c1c[nH]c2ccc(OCc3ccccc3)cc2c1=O`, the IC50 result is “ND(Insoluble)”.

On to `CCOC(=O)c1c[nH]c2cc(OCc3ccccc3)ccc2c1=O`, for which the IC50 result was “ND(Insoluble)”.

The assay is the same for the next values; noted with them: Plasmodium falciparum, 3D7; read-out: IC50.
Regarding `CCOC(=O)c1c[nH]c2ccc(Oc3ccccc3)cc2c1=O`, the IC50 came out at 0.164 µM.

`CCOC(=O)c1c[nH]c2cc(Oc3ccccc3)ccc2c1=O`: the IC50 is 0.0193 µM.

For the compound `CCOC(=O)c1c[nH]c2cc(Cc3ccccc3)ccc2c1=O`, the IC50 worked out at 0.00457 µM.

In the case of `CCOC(=O)c1c[nH]c2ccc(Oc3ccc(OC(F)(F)F)cc3)cc2c1=O`, the IC50 came to 0.23 µM.

Turning to `CCOC(=O)c1c[nH]c2cc(Oc3ccc(OC(F)(F)F)cc3)ccc2c1=O`, the IC50 came to 0.0053 µM.

For the compound `CCOC(=O)c1c[nH]c2ccc(Cc3ccc(OC(F)(F)F)cc3)cc2c1=O`, the IC50 was 0.142 µM.

Take `CCOC(=O)c1c[nH]c2cc(Cc3ccc(OC(F)(F)F)cc3)ccc2c1=O`: the IC50 amounted to 0.00046 µM.

With `CCOC(=O)c1c[nH]c2ccc(OCc3ccc(OC(F)(F)F)cc3)cc2c1=O`, the IC50 is 0.675 µM.

`CCOC(=O)c1c[nH]c2cc(OCc3ccc(OC(F)(F)F)cc3)ccc2c1=O`: the 50% inhibitory concentration (IC50) amounted to 0.005 µM.

In the case of `N#Cc1c[nH]c2ccc(Oc3ccccc3)cc2c1=O`, the IC50 was more than 10 µM.

Turning to `N#Cc1c[nH]c2cc(Oc3ccccc3)ccc2c1=O`, the IC50 worked out at 8.1 µM.

On to `O=c1cc[nH]c2ccc(Oc3ccccc3)cc12`, for which the IC50 amounted to 4.7 µM.

For the compound `O=c1cc[nH]c2cc(Oc3ccccc3)ccc12`, the IC50 is 6.73 µM.

Take `CC(C)OC(=O)c1c[nH]c2ccc(Oc3ccccc3)cc2c1=O`: the IC50 was found to be 0.184 µM.

For the compound `CC(C)OC(=O)c1c[nH]c2cc(Oc3ccccc3)ccc2c1=O`, the IC50 was 0.00845 µM.

On to `O=C(OC1CCCCC1)c1c[nH]c2ccc(Oc3ccccc3)cc2c1=O`, for which the IC50 came to 1.82 µM.

Consider `O=C(OC1CCCCC1)c1c[nH]c2cc(Oc3ccccc3)ccc2c1=O`, for which the IC50 turned out to be 0.0296 µM.

As to `CCOC(=O)c1c[nH]c2ccc(Cc3ccccc3)cc2c1=O`, the IC50 is 0.0404 µM.

Tested on in another assay: not listed separately
In words: Inhibition of Plasmodium falciparum 3D7 cytochrome bc1 complex assessed as cytochrome c reduction by spectrophotometric analysis in presence of decylubiquinol.
Details: not given
For `CCOC(=O)c1c[nH]c2cc(Cc3ccc(OC(F)(F)F)cc3)ccc2c1=O`, the EC50 stood at 0.0013 µM.

For `O=C1C(O)=C([C@H]2CC[C@H](c3ccc(Cl)cc3)CC2)C(=O)c2ccccc21` [ATOVAQUONE], the EC50 is 0.003 µM.
